Laboratory results: the NIST ThermoML archive (doi:10.1016/j.jct.2009.06.011)
Numbers after ± are expanded uncertainties.

Test: activity coefficient (dimensionless); of the first substance listed, at infinite dilution; xn = mol fraction of the nth substance listed
Conditions: 101 kPa, Liquid, Chromatography, x1 = 0

C=CCCC [1-pentene] + CCCC[n+]1ccc(C)cc1.O=S(=O)([N-]S(=O)(=O)C(F)(F)F)C(F)(F)F
activity coefficient (298.15 K): 5.81 ± 0.4 | activity coefficient (308.15 K): 5.6 ± 0.38 | activity coefficient (318.15 K): 5.42 ± 0.37 | activity coefficient (328.15 K): 5.24 ± 0.36 | activity coefficient (338.15 K): 5.07 ± 0.35 | activity coefficient (348.15 K): 4.93 ± 0.34 | activity coefficient (358.15 K): 4.8 ± 0.33 | activity coefficient (368.15 K): 4.68 ± 0.32

COC(C)(C)C [2-methoxy-2-methylpropane] + CCCC[n+]1ccc(C)cc1.O=S(=O)([N-]S(=O)(=O)C(F)(F)F)C(F)(F)F
activity coefficient (298.15 K): 1.97 ± 0.13 | activity coefficient (308.15 K): 2 ± 0.14 | activity coefficient (318.15 K): 2.03 ± 0.14 | activity coefficient (328.15 K): 2.06 ± 0.14 | activity coefficient (338.15 K): 2.08 ± 0.14 | activity coefficient (348.15 K): 2.1 ± 0.14 | activity coefficient (358.15 K): 2.12 ± 0.14 | activity coefficient (368.15 K): 2.15 ± 0.15

C1CCCC1 [cyclopentane] + CCCC[n+]1ccc(C)cc1.O=S(=O)([N-]S(=O)(=O)C(F)(F)F)C(F)(F)F
activity coefficient (298.15 K): 6.65 ± 0.45 | activity coefficient (308.15 K): 6.25 ± 0.43 | activity coefficient (318.15 K): 5.89 ± 0.4 | activity coefficient (328.15 K): 5.59 ± 0.38 | activity coefficient (338.15 K): 5.28 ± 0.36 | activity coefficient (348.15 K): 5.03 ± 0.34 | activity coefficient (358.15 K): 4.81 ± 0.33 | activity coefficient (368.15 K): 4.6 ± 0.31

C=CCCCCCC [oct-1-ene] + CCCC[n+]1ccc(C)cc1.O=S(=O)([N-]S(=O)(=O)C(F)(F)F)C(F)(F)F
activity coefficient (298.15 K): 13.8 ± 0.9 | activity coefficient (308.15 K): 13 ± 0.9 | activity coefficient (318.15 K): 12.4 ± 0.8 | activity coefficient (328.15 K): 11.8 ± 0.8 | activity coefficient (338.15 K): 11.3 ± 0.8 | activity coefficient (348.15 K): 10.9 ± 0.7 | activity coefficient (358.15 K): 10.4 ± 0.7 | activity coefficient (368.15 K): 10.1 ± 0.7

c1ccccc1 [benzene] + CCCC[n+]1ccc(C)cc1.O=S(=O)([N-]S(=O)(=O)C(F)(F)F)C(F)(F)F
activity coefficient (298.15 K): 0.683 ± 0.046 | activity coefficient (308.15 K): 0.702 ± 0.047 | activity coefficient (318.15 K): 0.719 ± 0.048 | activity coefficient (328.15 K): 0.735 ± 0.049 | activity coefficient (338.15 K): 0.75 ± 0.049 | activity coefficient (348.15 K): 0.767 ± 0.05 | activity coefficient (358.15 K): 0.781 ± 0.051 | activity coefficient (368.15 K): 0.795 ± 0.052

C=CCCCC [hex-1-ene] + CCCC[n+]1ccc(C)cc1.O=S(=O)([N-]S(=O)(=O)C(F)(F)F)C(F)(F)F
activity coefficient (298.15 K): 7.4 ± 0.5 | activity coefficient (308.15 K): 7.11 ± 0.48 | activity coefficient (318.15 K): 6.82 ± 0.47 | activity coefficient (328.15 K): 6.58 ± 0.45 | activity coefficient (338.15 K): 6.37 ± 0.43 | activity coefficient (348.15 K): 6.17 ± 0.42 | activity coefficient (358.15 K): 5.99 ± 0.41 | activity coefficient (368.15 K): 5.82 ± 0.4

C1CCOC1 [tetrahydrofuran] + CCCC[n+]1ccc(C)cc1.O=S(=O)([N-]S(=O)(=O)C(F)(F)F)C(F)(F)F
activity coefficient (298.15 K): 0.617 ± 0.043 | activity coefficient (308.15 K): 0.63 ± 0.044 | activity coefficient (318.15 K): 0.641 ± 0.044 | activity coefficient (328.15 K): 0.653 ± 0.045 | activity coefficient (338.15 K): 0.663 ± 0.045 | activity coefficient (348.15 K): 0.673 ± 0.046 | activity coefficient (358.15 K): 0.683 ± 0.046 | activity coefficient (368.15 K): 0.693 ± 0.047

C#CCCCCCC [1-octyne] + CCCC[n+]1ccc(C)cc1.O=S(=O)([N-]S(=O)(=O)C(F)(F)F)C(F)(F)F
activity coefficient (298.15 K): 4.43 ± 0.3 | activity coefficient (308.15 K): 4.42 ± 0.3 | activity coefficient (318.15 K): 4.4 ± 0.3 | activity coefficient (328.15 K): 4.38 ± 0.3 | activity coefficient (338.15 K): 4.37 ± 0.3 | activity coefficient (348.15 K): 4.36 ± 0.3 | activity coefficient (358.15 K): 4.34 ± 0.3 | activity coefficient (368.15 K): 4.33 ± 0.29
